# Measurements taken from patent publication US10501412B2, “Conjugates of cell binding molecules with cytotoxic agents” (HANGZHOU DAC BIOTECH CO., LTD., priority 2012, dated 2019).
# Conditions: generated by hydrolysis of Phe and Tyr in the animal blood circulation
substance,measurement,value
Mep-Ile-Tuv [Mep-Ile-Tuv moiety],fold less potency than tubulysin A and D,over 200 fold
